Test results taken from patent US9084788B2, “Compositions and methods for treating and preventing dermatoses” (Asymmetric Therapeutics, LLC, priority 2002, dated 2015).

Columns and labels:
[1] = target: T1, dihydropyrimidine dehydrogenase (DPD) (Homo sapiens, UniProt Q12882); details: in vivo; cited from earlier work
T1 construct: greater than 80% of an injected dose of 5-FU rapidly degraded by a single pathway
T1 sequence (Q12882 4-1025): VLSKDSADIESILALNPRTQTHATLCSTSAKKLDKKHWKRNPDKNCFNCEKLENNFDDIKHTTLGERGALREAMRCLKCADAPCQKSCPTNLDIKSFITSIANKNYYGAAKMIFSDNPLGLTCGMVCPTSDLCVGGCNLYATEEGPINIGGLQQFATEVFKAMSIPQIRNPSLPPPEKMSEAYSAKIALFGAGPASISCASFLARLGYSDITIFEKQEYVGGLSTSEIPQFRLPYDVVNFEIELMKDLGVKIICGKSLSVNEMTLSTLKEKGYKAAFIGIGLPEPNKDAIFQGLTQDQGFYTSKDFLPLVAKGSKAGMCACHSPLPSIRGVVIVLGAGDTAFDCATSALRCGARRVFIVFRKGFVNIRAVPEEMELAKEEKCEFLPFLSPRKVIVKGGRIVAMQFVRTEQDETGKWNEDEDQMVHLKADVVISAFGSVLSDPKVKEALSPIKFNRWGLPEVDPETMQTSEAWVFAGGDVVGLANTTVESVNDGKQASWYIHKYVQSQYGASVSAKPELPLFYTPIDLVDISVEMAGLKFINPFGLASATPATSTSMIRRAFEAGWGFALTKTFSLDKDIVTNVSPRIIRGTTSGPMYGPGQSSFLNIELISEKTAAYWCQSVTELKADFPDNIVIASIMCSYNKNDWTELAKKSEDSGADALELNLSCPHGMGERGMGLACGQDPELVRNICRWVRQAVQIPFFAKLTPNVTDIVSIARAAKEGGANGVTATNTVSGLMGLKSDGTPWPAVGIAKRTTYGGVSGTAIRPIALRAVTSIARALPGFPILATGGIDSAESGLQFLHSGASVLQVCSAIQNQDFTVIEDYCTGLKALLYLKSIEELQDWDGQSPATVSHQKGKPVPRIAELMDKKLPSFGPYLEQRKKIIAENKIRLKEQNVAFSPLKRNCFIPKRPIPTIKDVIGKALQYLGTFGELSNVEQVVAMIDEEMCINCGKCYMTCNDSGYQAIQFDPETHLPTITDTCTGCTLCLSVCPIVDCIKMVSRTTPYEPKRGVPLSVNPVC

OPRT = target: T2, OPRT (Homo sapiens, UniProt P11172); details: neutral pH; cited from earlier work
T2 sequence (P11172 1-480): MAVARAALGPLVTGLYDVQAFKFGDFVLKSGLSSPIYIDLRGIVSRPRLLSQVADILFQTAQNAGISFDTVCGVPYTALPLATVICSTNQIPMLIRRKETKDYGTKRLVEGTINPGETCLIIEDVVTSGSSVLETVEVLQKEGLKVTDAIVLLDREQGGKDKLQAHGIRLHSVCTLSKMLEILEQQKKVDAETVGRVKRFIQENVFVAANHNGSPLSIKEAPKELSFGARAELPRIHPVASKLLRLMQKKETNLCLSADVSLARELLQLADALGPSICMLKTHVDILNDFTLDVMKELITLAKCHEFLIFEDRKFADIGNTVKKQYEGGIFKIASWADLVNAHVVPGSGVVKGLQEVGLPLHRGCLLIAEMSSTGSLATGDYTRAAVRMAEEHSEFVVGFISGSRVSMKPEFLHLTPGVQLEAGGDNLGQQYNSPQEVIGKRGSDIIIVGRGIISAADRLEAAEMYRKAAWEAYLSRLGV

[2] = target: T3, human dihydrouracil dehydrogenase (DPD) (Homo sapiens, UniProt Q12882); details: Naguib et al. 1985; cited from earlier work
T3 sequence (Q12882 4-1025): T1 sequence (Q12882 4-1025)

[3] = tested on: patients (Hand and Foot syndrome); experiment: Ten patients treated one to six months, prevention of Hand and Foot syndrome; format: in vivo, human
Excerpt: The calculations are based on topical application of 1 g of cream to the hands and 1 g to the feet twice a day, totaling 4 g. […] A volume of distribution (Vd) of 50 L is assumed.

[4] = tested on: Marker tumor (metastatic breast cancer); experiment: Marker tumor size in the metastatic breast cancer patient on Xeloda and Taxotere; format: in vivo, human; details: seen prior to course 5, on lower dose Xeloda (1000 mg/m^2)
Excerpt: They had refused mastectomy and had previously failed adriamycin and cytoxan, weekly taxol, and weekly navelbine. […] FIGS. 3A, 3B and 3C illustrate the incidence of Hand and Foot syndrome in patients treated with Xeloda®.

[5] = tested on: patients (hand-foot syndrome); details: in vivo; cited from earlier work

## O=c1[nH]cc(F)c(=O)[nH]1 [5-FU, 5-fluorouracil]
[1]
  share of an injected dose rapidly degraded by the DPD pathway: greater than 80%
OPRT
  OPRT preference for 5-FU over uracil: about 50 times
[2]
  substrate quality for DPD compared with uracil: better substrate

## O=C(O)c1cc(=O)[nH]c(=O)[nH]1 [Orotate, orotate]
OPRT
  Km for OPRT, lower than that of 5-FU: ~50 fold

## O=c1cc[nH]c(=O)[nH]1 [Uracil, uracil]
[3]
  toxicity: no reports of toxicity
[3]; 1% cream
  prevention of Hand and Foot syndrome: complete efficacy

## CCCCCOC(=O)Nc1nc(=O)n([C@@H]2O[C@H](C)[C@@H](O)[C@H]2O)cc1F [Xeloda, capecitabine]
[4]
  Marker tumor course (remark): progression
[5]
  frequency of hand-foot syndrome during treatment: common
  patients with Grade II-III hand foot toxicity: 10-50%
